Test results published in US7482308B2, “Difluoromethanesulfonyl anilide derivatives useful as herbicides” (Bayer CropScience AG, priority 2004, dated 2009).

Legend:
Type in all cases: in vivo
[1] = tested on: Scirpus juncoides Roxburgh; test: Test for herbicidal effect against paddy field weeds (Test Example 1); settings: examined 3 weeks after treatment
Method: (§1) Preparation of Formulation of the Active Compound
(§2) • Carrier: DMF 5 parts by weight • Emulsifier: Benzyloxy polyglycol ether 1 part by weight
(§3) A formulation of an active compound is obtained as an emulsifiable concentrate by mixing 1 part by weight of the active compound with the above-mentioned amount of the carrier and emulsifier. A prescribed amount of the formulation is diluted with water.
(§4) In a green house seeds or tubers of Scirpus juncoides Roxburgh, Monochoria vaginalis Presi, annual broad-leaved weeds (Lindemia procumbens Philcox, Rotala indica Koehne, Elatine triandra Schk, Ammannia multiflora Roxb., etc.), Cyperus serotinus Rottboel were inoculated in a 500 cm^2 pot filled with paddy field soil. Then water was poured to a depth of about 2-3 cm. Five days and 13 days after inoculation, a prescribed, diluted solution of the formulation of each active compound, prepared according to the aforementioned preparation method, was applied to the surface of water. After the treatment the water depth of 3 cm was maintained and the herbicidal effect was examined after 3 weeks from the treatment.
(§5) The herbicidal effect was rated 100% in the case of complete death and as 0% in the case of no herbicidal effect. In case of showing higher than 80% herbicidal effect, it is evaluated as practical as herbicide.

[2] = tested on: Cyperus serotinus Rottboel; test: as above; settings: examined 3 weeks after treatment
Method: as §1, §2, §3, §4, §5

[3] = tested on: Monochoria vaginalis Presi; test: as above; settings: examined 3 weeks after treatment
Method: as §1, §2, §3, §4, §5

[4] = tested on: annual broad-leaved weeds; test: as above; settings: examined 3 weeks after treatment
Method: as §1, §2, §3, §4, §5

[5] = tested on: Scirpus juncoides Roxburgh; test: Test for residual effectiveness against paddy field weeds (Test Example 2); settings: 60 g ai/ha; period of maintaining herbicidal effect of higher than 80%
Text: (§6) In a green house a 1000 cm^2 pot was filled with paddy field soil and water was poured to a depth of about 2 to 3 cm. A prescribed, diluted solution of the above-mentioned Test Example 1, was applied to the surface of water. After the prescribed time after the treatment (just after treatment, 1 week, 2 weeks, 3 weeks, 4 weeks, 5 weeks, 6 weeks and 7 weeks after treatment), seeds or tubers of the weeds to be tested Scirpus juncoides Roxburgh, Monochoria vaginalis Presi, annual broad-leaved weeds (Lindernia procumbens Philcox, Rotala indica Koehne, Elatine triandra Schk, Ammannia multiflora Roxb., etc.), Cyperus serotinus Rottboel and Sagittaria pygmaea Miq. were inoculated. Three weeks after the inoculation each herbicidal effect was examined.
(§7) The evaluation of the residual effectiveness was shown as the period (number of weeks) of maintaining herbicidal effect of higher than 80%, after the evaluation of herbicidal effect had been conducted in the similar manner as the above-mentioned Test Example 1.

[6] = tested on: Cyperus serotinus Rottboel; test: as above; settings: 60 g ai/ha; period of maintaining herbicidal effect of higher than 80%
Text: as §6, §7

[7] = tested on: Monochoria vaginalis Presi; test: as above; settings: 60 g ai/ha; period of maintaining herbicidal effect of higher than 80%
Text: as §6, §7

[8] = tested on: annual broad-leaved weeds; test: as above; settings: 60 g ai/ha; period of maintaining herbicidal effect of higher than 80%
Text: as §6, §7

Sagittaria pygmaea Miq. = test: as above; settings: 60 g ai/ha; period of maintaining herbicidal effect of higher than 80%
Text: as §6, §7

[9] = tested on: sulfonylurea resistant Scirpus juncoides Roxburgh (collected in Iwamizawa area, Hokkaido); test: Test for herbicidal effect against sulfonylurea resistant weeds (Test Example 3); settings: applied at beginning of emergence, examined 3 weeks after treatment
Text: (§8) In a green house seeds of Scirpus juncoides Roxburgh (collected in Iwamizawa area, Hokkaido), Lindernia procumbens Philcox (collected in Kazo area, Saitama Pref.), Lindernia procumbens Philcox (collected in Higashi-Hiroshima area, Hiroshima Pref.), Elatine triandra Schk (collected in Kazo area, Saitama Pref.), all of which were confirmed as sulfonylurea resistant, were inoculated in a 20 cm^2 cup filled with paddy field soil. Then water was poured to a depth of about 2 to 3 cm. At the beginning of emergence of each weed, a prescribed, diluted solution of the formulation of each active compound prepared in the same manner as the above-mentioned Test Example 1 was applied to the surface of water. After the treatment the water depth of 3 cm was maintained and the herbicidal effect was examined after 3 weeks from the treatment. The evaluation of the herbicidal effect was conducted in the same manner as the above-mentioned Test Example 1. In case of showing higher than 80% herbicidal effect, it is evaluated as practical as herbicide. In consideration of the possibility that the biological properties including herbicide resistance of the plants grown in different areas might be different, sulfonylurea resistant Lindernia procumbens Philcox collected in two different areas were used in the present tests. The study results with the compounds No. 1, 3, 11 and 17 and the comparative compound No. C-1 as specific examples are shown in the following Table 6.

[10] = tested on: sulfonylurea resistant Elatine triandra Schk (collected in Kazo area, Saitama Pref.); test: as above; settings: applied at beginning of emergence, examined 3 weeks after treatment
Text: as §8

[11] = tested on: sulfonylurea resistant Lindernia procumbens Philcox (collected in Higashi-Hiroshima area, Hiroshima Pref.); test: as above; settings: applied at beginning of emergence, examined 3 weeks after treatment
Text: as §8

[12] = tested on: sulfonylurea resistant Lindernia procumbens Philcox (collected in Kazo area, Saitama Pref.); test: as above; settings: applied at beginning of emergence, examined 3 weeks after treatment
Text: as §8

[13] = 15 g ai/ha, application 5 days after inoculation
[14] = 15 g ai/ha, application 13 days after inoculation
[15] = 30 g ai/ha, application 5 days after inoculation
[16] = 30 g ai/ha, application 13 days after inoculation

What does the source list for `COc1cc(OC)nc(C(O)c2cccc(F)c2NS(=O)(=O)C(F)F)n1` (centres unmarked) [Compound 1, 2-fluoro-6-[(4,6-dimethoxypyrimidin-2-yl)hydroxymethyl]-N-difluoromethanesulfonanilide]?
herbicidal effect Scirpus juncoides [1, 13]: 100%; herbicidal effect Scirpus juncoides [1, 14]: 100%; herbicidal effect Scirpus juncoides [1, 15]: 100%; herbicidal effect Scirpus juncoides [1, 16]: 100%; herbicidal effect Cyperus serotinus [2, 13]: 100%; herbicidal effect Cyperus serotinus [2, 14]: 95%; herbicidal effect Cyperus serotinus [2, 15]: 100%; herbicidal effect Cyperus serotinus [2, 16]: 100%; herbicidal effect Monochoria vaginalis [3, 13]: 100%; herbicidal effect Monochoria vaginalis [3, 14]: 100%; herbicidal effect Monochoria vaginalis [3, 15]: 100%; herbicidal effect Monochoria vaginalis [3, 16]: 100%; herbicidal effect broad-leaved weeds [4, 13]: 100%; herbicidal effect broad-leaved weeds [4, 14]: 95%; herbicidal effect broad-leaved weeds [4, 15]: 100%; herbicidal effect broad-leaved weeds [4, 16]: 100%; period showing sufficient residual herbicidal effectiveness Scirpus juncoides [5]: 6 week; period showing sufficient residual herbicidal effectiveness Cyperus serotinus [6]: 3 week; period showing sufficient residual herbicidal effectiveness Monochoria vaginalis [7]: 4 week; period showing sufficient residual herbicidal effectiveness broad-leaved weeds [8]: 3 week; period showing sufficient residual herbicidal effectiveness Sagittaria pygmaea (Sagittaria pygmaea Miq.): 3 week; herbicidal effect against sulfonylurea resistant weeds Scirpus juncoides (collected in Iwamizawa area, Hokkaido) ([9]; 30 g ai/ha): 100%; herbicidal effect against sulfonylurea resistant weeds Scirpus juncoides (collected in Iwamizawa area, Hokkaido) ([9]; 60 g ai/ha): 100%; herbicidal effect against sulfonylurea resistant weeds Elatine triandra (collected in Kazo area, Saitama Pref.) ([10]; 30 g ai/ha): 100%; herbicidal effect against sulfonylurea resistant weeds Elatine triandra (collected in Kazo area, Saitama Pref.) ([10]; 60 g ai/ha): 100%; herbicidal effect against sulfonylurea resistant weeds Lindernia procumbens (collected in Higashi-Hiroshima area, Hiroshima Pref.) ([11]; 30 g ai/ha): 100%; herbicidal effect against sulfonylurea resistant weeds Lindernia procumbens (collected in Higashi-Hiroshima area, Hiroshima Pref.) ([11]; 60 g ai/ha): 100%; herbicidal effect against sulfonylurea resistant weeds Lindernia procumbens (collected in Kazo area, Saitama Pref.) ([12]; 30 g ai/ha): 95%; herbicidal effect against sulfonylurea resistant weeds Lindernia procumbens (collected in Kazo area, Saitama Pref.) ([12]; 60 g ai/ha): 100%
